# ChEMBL document CHEMBL1201862, “PubChem BioAssay data set” (2004)
# Activity calls are given as the source filed them.
# What was measured:
# [1] = Luminescence Cell-Based Dose Retest to Confirm Inhibitors of Cancer Stem Cells. [Related pubchem assays (depositor defined):AID2717, AID2721]; format: functional; conditions: Homo sapiens
# Streptococcus [2] = assay: Luminescence Microorganism-Based Dose Response Follow up to Identify Compounds Cytotoxic to Streptococcus. [Related pubchem assays: 1677 (Project Summary), 1915, 1914, 1902 (Retest at Dose), 1900 (Counter Screen), 1662 (Primary HTS)]; format: functional, organism-based
# Streptococcus [3] = assay: GAS UMAA2166 growth inhibition – luminescence, BacTiterGlo, counter-screen for streptokinase expression inhibitor project, dose response (AID 1915); format: functional, organism-based;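 note: potency for reduction of bacterial viability or growth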
# [4] = test system: Streptococcus sp. 'group A'; assay: Streptococcus pyogenes SK(-)GAS viability under kanamycin – luminescence, BacTiterGlo, confirmation, counter-screen for streptokinase expression inhibitor project, dose response (AID 1900); format: functional, organism-based
# [5] = viability loss of HMLE_sh_eGFP cells – cell-based, luminescence, counter-screen for HMLE_sh_ECad selective toxicity project, dose response (AID 463074); format: functional, Homo sapiens;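 note: HMLE human mammary epithelial cells expressing control shRNA against eGFP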
# Streptokinase A = target: T1, Streptokinase A (Streptococcus pyogenes serotype M1, UniProt P10520); assay: viability-normalized secreted streptokinase activity reduction – plasminogen activation absorbance, OD405, dose response (AID 1914); format: functional, Streptococcus pyogenes M1 GAS;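 note: secreted streptokinase activity via plasminogen activation per viability signal from cell pellet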
# T1 sequence (P10520 whole entry): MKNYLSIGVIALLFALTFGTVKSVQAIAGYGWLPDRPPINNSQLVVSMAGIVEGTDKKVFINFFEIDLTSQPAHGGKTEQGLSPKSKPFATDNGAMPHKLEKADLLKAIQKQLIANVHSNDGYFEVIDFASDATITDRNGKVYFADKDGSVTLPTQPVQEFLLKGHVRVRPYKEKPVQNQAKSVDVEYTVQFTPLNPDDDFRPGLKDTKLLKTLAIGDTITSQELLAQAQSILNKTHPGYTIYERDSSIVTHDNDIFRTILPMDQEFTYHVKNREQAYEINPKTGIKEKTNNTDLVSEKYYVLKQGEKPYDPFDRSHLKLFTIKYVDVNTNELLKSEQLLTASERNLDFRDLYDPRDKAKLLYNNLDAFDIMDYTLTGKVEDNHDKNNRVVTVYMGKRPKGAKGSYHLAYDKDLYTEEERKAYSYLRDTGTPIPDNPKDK
# [6] = target: UDP-galactopyranose mutase (Mycobacterium tuberculosis, UniProt P9WIQ1); assay: Inhibitors of Mycobacterium tuberculosis UDP-galactopyranose mutase (UGM) enzyme Measured in Biochemical System Using Plate Reader - 2105-02_Inhibitor_Dose_CherryPick_Activity. [Related pubchem assays (depositor defined):AID504439]
# Escherichia coli = assay: microbe, parasite or virus in culture
# [7] = target: Dual specificity protein phosphatase 6 (Rattus norvegicus, UniProt Q64346); format: functional;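 note: confirmatory in vitro dose-response testing of MKP-3 inhibition; recombinant His-tagged MKP-3 made in E. coli BL21 with OMFP substrate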
# [8] = target: T2, Tyrosine-protein phosphatase non-receptor type 7 (Homo sapiens, UniProt P35236); assay: redox-active compounds inhibiting HePTP phosphatase – biochemical, fluorescence, mechanism study (AID 2068); format: functional
# T2 sequence (P35236 whole entry): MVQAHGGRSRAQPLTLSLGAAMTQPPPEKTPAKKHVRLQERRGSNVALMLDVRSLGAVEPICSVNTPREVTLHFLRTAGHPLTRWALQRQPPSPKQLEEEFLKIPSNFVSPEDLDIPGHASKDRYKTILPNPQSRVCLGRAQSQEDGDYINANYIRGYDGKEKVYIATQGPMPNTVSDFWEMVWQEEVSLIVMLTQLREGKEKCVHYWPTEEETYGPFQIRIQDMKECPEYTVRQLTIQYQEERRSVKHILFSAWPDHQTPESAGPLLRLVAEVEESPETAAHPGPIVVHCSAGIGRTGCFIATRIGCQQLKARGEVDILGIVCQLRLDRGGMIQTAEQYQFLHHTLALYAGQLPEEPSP
# [9] = target: T3, Tyrosine-protein phosphatase non-receptor type 22 (Homo sapiens, UniProt Q9Y2R2); assay: SAR LYP1 Fluorescent Assay using OMFP substrate for In Vitro dose response studies - Set 3. [Related pubchem assays (depositor defined):AID1779, AID1784, AID2140, AID2686]; format: functional
# [10] = target: T3, Tyrosine-protein phosphatase non-receptor type 22; assay: inhibition of lymphoid tyrosine phosphatase LYP – biochemical, pCAP fluorogenic substrate, fluorescence, set 3, SAR follow-up (AID 449727); format: functional
# [11] = target: Tyrosine-protein phosphatase non-receptor type 12 (Homo sapiens, UniProt Q05209); assay: SAR Selectivity Analysis of small molecule inhibitors of PEST using pCAP in a fluorescence assay. [Related pubchem assays (depositor defined):AID1779, AID1784, AID2135]; format: functional
# [12] = target: T2, Tyrosine-protein phosphatase non-receptor type 7; assay: inhibition of hematopoietic tyrosine phosphatase HePTP – biochemical, set 2, SAR follow-up (AID 449736); format: functional
# BJ [13] = assay: cells; format: functional, cell-based; conditions: Homo sapiens
# [14] = target: DNA damage-inducible transcript 3 protein (Mus musculus, UniProt P35639); format: functional, Cricetulus griseus
# A-375 = assay: MITF: Counter assay: A375 proliferation Measured in Cell-Based System Using Plate Reader - 2084-03_Inhibitor_Dose_DryPowder_Activity. [Related pubchem assays (depositor defined):AID488944]; format: functional; conditions: Homo sapiens
# X-box-binding protein 1 = target: T4, X-box-binding protein 1 (Homo sapiens, UniProt P17861); format: functional, Cricetulus griseus;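 note: confirmatory dose-response counter-screen serving a CHOP assay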
# T4 sequence (P17861 whole entry): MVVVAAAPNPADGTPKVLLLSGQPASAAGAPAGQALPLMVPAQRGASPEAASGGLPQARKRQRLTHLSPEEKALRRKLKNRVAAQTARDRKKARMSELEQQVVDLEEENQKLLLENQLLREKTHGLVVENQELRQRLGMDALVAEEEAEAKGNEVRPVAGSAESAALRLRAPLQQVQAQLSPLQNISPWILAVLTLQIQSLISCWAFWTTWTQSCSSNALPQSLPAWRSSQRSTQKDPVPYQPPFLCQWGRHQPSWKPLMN
# [15] = DRD fibroblast viability loss – cell-based, non-viral oncogenic, luminescence, dose response (AID 1934); format: functional; conditions: Homo sapiens
# BJ [16] = assay: BJ-TERT-LT-ST fibroblast viability loss – cell-based, RAS-independent, luminescence, dose response (AID 1935); format: functional; conditions: Homo sapiens;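 note: BJ fibroblasts immortalized with TERT plus LT and ST oncogenes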
# BJ [17] = assay: BJ-TERT fibroblast viability loss – cell-based, RAS-independent, luminescence, dose response (AID 1933); format: functional; conditions: Homo sapiens
# [18] = target: T5, Heat shock factor protein 1 (Mus musculus, UniProt P38532); assay: decrease of HSF1-responsive luciferase luminescence – cell-based, NIH3T3, dose retest, confirmation (AID 2382); format: functional;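 note: NIH3T3 fibroblasts with HSF1-driven luciferase reporter stressed by proteasome inhibitor MG132; luminescence from HSF1-driven luciferase expression after 8 hours of MG132 stress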
# T5 sequence (P38532 whole entry): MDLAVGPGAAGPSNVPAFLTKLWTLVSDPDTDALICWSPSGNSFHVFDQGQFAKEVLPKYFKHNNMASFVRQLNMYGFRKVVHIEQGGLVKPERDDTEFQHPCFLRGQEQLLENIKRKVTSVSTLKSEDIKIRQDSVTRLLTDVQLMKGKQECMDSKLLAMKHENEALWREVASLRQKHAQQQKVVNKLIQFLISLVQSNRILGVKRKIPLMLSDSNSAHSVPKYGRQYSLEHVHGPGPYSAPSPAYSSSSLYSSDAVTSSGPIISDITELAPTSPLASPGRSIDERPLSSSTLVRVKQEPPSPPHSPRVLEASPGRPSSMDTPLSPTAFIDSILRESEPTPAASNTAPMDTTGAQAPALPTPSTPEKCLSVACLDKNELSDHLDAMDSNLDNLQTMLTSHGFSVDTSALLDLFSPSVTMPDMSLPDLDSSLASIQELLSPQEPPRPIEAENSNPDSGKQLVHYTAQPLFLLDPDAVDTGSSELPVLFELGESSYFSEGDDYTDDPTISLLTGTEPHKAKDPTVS
# [19] = target: T6, Microphthalmia-associated transcription factor (Homo sapiens, UniProt O75030); assay: reducers of TRPM1 reporter luminescence, concentration series – cell-based, SK-MEL-5, cherry-picked, set 3, MITF inhibitor project, dose response (AID 493073); format: functional;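 note: SK-MEL-5 melanoma cells with luciferase driven by the MITF target TRPM1 promoter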
# T6 sequence (O75030 whole entry): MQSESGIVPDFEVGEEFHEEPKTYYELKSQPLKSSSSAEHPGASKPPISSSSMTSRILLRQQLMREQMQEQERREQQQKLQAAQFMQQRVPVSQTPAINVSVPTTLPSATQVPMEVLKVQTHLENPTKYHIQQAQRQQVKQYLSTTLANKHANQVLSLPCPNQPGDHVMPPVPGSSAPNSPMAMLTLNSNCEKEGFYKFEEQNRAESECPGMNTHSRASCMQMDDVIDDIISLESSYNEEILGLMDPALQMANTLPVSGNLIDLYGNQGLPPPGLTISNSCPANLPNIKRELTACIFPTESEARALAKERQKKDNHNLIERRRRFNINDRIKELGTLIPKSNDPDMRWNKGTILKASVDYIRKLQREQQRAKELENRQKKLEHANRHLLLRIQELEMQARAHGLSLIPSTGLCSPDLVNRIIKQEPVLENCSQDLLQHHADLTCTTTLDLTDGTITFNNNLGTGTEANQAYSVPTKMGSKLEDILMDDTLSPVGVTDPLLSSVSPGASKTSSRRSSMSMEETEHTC
# [20] = target: T7, Apoptotic protease-activating factor 1 (Homo sapiens, UniProt O14727); assay: activation of Apaf-1 mediated apoptosis – fluorescent, uHTS hits, dose response (AID 588554); format: functional
# T7 sequence (O14727 whole entry): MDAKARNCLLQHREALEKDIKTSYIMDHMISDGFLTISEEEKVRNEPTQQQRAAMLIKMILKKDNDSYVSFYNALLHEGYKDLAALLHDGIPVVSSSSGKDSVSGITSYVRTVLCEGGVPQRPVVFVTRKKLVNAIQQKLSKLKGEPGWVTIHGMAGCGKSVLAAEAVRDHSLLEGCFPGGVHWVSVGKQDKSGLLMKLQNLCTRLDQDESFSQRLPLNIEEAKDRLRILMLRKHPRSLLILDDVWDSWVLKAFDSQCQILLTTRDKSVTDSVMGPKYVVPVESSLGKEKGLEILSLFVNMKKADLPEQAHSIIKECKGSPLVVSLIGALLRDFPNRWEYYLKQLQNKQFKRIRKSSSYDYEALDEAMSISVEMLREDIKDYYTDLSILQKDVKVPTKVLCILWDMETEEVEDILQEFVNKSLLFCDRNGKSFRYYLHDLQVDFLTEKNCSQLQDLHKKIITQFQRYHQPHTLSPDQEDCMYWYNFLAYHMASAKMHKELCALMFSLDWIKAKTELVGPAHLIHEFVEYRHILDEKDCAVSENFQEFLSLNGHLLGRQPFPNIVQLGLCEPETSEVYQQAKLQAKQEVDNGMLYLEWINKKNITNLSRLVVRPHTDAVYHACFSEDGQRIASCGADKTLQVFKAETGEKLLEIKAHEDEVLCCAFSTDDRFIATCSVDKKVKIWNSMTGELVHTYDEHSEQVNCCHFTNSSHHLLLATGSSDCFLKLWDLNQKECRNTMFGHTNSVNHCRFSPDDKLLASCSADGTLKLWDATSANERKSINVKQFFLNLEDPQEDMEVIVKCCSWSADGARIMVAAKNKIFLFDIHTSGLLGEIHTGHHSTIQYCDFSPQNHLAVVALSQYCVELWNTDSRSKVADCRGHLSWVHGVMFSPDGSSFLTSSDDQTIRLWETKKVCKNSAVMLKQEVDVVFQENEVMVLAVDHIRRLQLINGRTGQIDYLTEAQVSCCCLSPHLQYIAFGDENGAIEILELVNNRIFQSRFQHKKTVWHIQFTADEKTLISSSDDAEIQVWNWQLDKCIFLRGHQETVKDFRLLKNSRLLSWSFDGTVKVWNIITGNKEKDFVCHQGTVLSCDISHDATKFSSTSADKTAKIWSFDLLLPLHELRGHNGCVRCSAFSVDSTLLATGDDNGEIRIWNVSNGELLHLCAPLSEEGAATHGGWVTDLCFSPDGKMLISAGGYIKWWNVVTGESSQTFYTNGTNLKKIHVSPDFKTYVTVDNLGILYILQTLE
# [21] = target: Envelope glycoprotein gp160 (Human immunodeficiency virus 1, UniProt Q6QLK5); assay: cell-free HIV fusion peptide-binding blockers – biochemical, uHTS, fluorescence dequenching, […] (AID 1986)
# Trypsin = Trypsin (Sus scrofa, UniProt P00761); assay: trypsin protease activity blockade – biochemical, quenched peptide fluorescence, cherry-pick, selectivity assay for Rce1 protease inhibitor project, dose response (AID 488789)
# CAAX prenyl protease 2 [22] = target: CAAX prenyl protease 2 (Saccharomyces cerevisiae S288c, UniProt Q03530); format: biochemical
# CAAX prenyl protease 2 [23] = target: CAAX prenyl protease 2 (Homo sapiens, UniProt Q9Y256); assay: inhibition of Ras-converting CAAX protease Rce1 – biochemical, yeast membranes, quenched-peptide fluorescence, cherry-pick, dose response (AID 588849)
# Sequence of CAAX prenyl protease 2 (Homo sapiens, UniProt Q9Y256) (Q9Y256 whole entry): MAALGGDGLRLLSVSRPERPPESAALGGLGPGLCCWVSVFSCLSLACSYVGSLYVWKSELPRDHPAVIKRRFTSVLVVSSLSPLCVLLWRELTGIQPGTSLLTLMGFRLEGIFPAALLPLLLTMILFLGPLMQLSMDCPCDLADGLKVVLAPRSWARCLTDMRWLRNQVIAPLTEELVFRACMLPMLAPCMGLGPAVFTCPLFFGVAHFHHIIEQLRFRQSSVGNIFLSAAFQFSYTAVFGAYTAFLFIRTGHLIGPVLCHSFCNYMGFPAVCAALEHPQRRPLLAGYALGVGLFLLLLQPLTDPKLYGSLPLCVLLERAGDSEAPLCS
# T3 sequence (Q9Y2R2 whole entry): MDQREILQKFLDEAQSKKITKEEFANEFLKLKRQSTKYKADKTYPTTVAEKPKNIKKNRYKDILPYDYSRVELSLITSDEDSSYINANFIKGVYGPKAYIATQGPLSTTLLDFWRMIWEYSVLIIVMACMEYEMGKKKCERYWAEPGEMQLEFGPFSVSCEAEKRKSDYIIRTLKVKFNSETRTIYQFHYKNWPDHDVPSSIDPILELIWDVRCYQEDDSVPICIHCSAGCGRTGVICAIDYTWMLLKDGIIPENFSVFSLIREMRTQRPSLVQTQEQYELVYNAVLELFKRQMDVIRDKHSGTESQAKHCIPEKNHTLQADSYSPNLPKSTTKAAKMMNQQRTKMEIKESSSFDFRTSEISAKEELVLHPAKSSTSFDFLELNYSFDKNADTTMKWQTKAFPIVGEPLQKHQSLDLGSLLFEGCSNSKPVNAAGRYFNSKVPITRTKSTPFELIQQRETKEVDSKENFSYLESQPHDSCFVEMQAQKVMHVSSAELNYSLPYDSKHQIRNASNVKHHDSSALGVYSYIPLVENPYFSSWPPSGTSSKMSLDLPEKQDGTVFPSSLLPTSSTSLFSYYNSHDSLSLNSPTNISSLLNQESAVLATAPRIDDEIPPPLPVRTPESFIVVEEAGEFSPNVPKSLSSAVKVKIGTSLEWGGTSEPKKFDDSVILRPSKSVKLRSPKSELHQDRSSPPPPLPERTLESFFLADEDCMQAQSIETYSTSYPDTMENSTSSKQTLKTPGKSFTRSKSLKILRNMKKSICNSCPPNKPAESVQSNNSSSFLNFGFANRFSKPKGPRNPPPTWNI
# Sequence of DNA damage-inducible transcript 3 protein (P35639 whole entry): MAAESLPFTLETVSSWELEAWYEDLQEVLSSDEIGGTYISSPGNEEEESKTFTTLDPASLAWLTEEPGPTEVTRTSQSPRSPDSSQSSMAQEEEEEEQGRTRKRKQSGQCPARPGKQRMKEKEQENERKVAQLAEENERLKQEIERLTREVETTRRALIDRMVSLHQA
# Sequence of Envelope glycoprotein gp160 (Q6QLK5 whole entry, the tested form may be a part): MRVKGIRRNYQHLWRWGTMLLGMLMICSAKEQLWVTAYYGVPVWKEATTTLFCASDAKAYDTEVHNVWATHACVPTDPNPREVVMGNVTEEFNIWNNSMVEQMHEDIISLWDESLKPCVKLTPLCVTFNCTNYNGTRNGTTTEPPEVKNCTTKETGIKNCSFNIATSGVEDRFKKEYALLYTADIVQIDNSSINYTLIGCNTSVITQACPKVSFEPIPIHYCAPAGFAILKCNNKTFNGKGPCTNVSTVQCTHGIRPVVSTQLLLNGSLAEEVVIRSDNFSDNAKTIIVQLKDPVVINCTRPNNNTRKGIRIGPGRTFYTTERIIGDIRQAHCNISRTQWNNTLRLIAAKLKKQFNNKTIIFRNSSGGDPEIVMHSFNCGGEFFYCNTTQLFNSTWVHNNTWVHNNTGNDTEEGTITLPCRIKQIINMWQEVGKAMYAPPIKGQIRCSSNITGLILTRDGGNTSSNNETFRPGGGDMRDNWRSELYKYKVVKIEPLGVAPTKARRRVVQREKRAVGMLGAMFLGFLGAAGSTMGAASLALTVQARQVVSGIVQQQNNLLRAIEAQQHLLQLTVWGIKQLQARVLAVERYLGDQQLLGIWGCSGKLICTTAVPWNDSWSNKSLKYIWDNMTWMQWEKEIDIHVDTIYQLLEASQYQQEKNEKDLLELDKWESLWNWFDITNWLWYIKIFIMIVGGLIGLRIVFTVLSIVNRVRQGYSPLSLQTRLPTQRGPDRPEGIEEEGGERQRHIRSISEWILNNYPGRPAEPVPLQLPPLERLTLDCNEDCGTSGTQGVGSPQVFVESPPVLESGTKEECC
# Sequence of Dual specificity protein phosphatase 6 (Q64346 whole entry): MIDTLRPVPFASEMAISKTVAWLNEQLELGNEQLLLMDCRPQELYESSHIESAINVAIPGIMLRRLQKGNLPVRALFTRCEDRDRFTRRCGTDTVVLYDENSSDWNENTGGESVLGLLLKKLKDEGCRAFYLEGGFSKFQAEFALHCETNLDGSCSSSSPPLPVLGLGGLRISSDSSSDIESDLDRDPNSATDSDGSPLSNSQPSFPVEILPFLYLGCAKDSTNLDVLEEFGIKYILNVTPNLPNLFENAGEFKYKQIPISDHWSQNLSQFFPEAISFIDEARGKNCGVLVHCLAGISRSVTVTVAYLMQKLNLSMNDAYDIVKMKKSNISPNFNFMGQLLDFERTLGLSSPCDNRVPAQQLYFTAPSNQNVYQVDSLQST
# Sequence of UDP-galactopyranose mutase (P9WIQ1 whole entry): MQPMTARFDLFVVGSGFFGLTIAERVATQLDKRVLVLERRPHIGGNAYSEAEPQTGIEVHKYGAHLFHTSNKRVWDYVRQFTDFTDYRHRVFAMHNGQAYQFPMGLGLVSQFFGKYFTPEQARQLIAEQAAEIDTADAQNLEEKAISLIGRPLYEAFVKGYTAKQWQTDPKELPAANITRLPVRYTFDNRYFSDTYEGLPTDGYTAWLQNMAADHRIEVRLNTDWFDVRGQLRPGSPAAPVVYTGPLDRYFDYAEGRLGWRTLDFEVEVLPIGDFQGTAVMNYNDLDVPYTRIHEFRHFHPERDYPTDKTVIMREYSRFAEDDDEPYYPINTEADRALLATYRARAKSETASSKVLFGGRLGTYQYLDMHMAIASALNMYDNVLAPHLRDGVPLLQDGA
# Sequence of Tyrosine-protein phosphatase non-receptor type 12 (Q05209 whole entry): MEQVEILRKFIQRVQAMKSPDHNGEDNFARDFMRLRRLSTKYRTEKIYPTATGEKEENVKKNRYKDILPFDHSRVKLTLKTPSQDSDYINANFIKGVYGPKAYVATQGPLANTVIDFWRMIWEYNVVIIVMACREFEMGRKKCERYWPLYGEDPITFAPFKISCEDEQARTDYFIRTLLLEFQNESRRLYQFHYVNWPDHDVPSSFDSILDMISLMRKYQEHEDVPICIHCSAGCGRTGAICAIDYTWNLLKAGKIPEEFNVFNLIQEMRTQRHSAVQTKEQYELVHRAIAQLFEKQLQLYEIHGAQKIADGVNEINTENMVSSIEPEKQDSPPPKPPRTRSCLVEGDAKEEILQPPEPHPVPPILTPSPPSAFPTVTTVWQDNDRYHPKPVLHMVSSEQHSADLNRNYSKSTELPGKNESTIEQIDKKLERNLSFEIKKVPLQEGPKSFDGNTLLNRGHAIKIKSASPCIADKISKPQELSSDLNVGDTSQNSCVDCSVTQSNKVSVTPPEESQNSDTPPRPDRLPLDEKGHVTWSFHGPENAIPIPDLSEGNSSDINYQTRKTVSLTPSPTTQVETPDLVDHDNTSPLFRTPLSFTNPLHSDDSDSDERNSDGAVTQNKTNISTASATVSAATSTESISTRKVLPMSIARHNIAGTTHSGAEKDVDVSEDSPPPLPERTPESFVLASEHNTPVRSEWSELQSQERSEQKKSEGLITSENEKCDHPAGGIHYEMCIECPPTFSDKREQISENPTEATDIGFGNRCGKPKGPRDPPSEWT
# Sequence of Trypsin (P00761 whole entry): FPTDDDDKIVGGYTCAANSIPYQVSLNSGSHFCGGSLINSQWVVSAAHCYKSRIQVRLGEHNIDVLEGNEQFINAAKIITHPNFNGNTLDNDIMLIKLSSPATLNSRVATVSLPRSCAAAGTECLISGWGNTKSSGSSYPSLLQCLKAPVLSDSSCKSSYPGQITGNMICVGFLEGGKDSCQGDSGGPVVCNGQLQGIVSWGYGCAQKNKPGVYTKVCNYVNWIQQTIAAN
# Sequence of CAAX prenyl protease 2 (Saccharomyces cerevisiae S288c, UniProt Q03530) (Q03530 whole entry): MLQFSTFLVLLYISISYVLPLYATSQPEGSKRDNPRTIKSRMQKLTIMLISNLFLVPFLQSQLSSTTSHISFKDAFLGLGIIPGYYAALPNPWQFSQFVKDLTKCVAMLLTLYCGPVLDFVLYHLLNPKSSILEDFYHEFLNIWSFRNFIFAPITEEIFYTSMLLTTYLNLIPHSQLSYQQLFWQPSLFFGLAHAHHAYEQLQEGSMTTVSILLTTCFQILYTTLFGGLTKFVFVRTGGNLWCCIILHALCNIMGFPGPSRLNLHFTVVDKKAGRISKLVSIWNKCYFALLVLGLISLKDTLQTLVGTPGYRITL
smiles,measurement,setting,value
CC1CC(C)CN(c2ncc3c(n2)CC(c2ccccc2Cl)CC3=O)C1 (centres undefined),AC50,[1],4.15 µM (active)
same,EC50,Streptococcus [2],> 500 µM (not active)
same,EC50,Streptococcus [3],> 150 µM (not active)
same,EC50,[4],7.25 µM (active)
same,AC50,[5],30.2 µM (active)
same,EC50,Streptokinase A,10.2 µM (active)
CCCCCCNC(=O)C(C#N)c1nc2ccccc2nc1N1CCOCC1 (centres undefined),AC50,[6],70 µM (active)
COc1ccc(-c2cc([C@H]3[C@@H]4C=CCC[C@@]4(C)C(=O)N3Cc3ccccc3)ccc2F)cc1,AC50,[1],3.42 µM (active)
same,AC50,Escherichia coli,121 µM (active)
CC(C)(Oc1ccc2sc3ccccc3c2c1)C(=O)O,IC50,[7],> 99 µM (inactive)
same,IC50,[8],30.2 µM (active)
same,IC50,[9],77.5 µM (active)
same,IC50,[10],83.8 µM (active)
same,IC50,[11],9.45 µM (active)
same,IC50,[12],0.45 µM (active)
O=C(N/N=C/c1ccccc1Cl)c1[nH]nc2c1CCCC2,EC50,BJ [13],18.2 µM (active)
same,Absolute IC50 (CHOP),[14],10 µM
same,AC50,A-375,48.5 µM (active)
same,Absolute IC50 (XBP1),X-box-binding protein 1,10 µM
same,EC50,[15],15.8 µM (active)
same,EC50,BJ [16],> 150 µM (inconclusive)
same,EC50,BJ [17],16.4 µM (active)
same,EC50,[18],16 µM (active)
same,AC50,[19],7.97 µM (active)
O=C(O)CCN1C(=O)/C(=C\c2ccc(OCc3ccccc3)c(OCc3ccccc3)c2)SC1=S,EC50,[20],18.7 µM (active)
same,IC50,[21],10.2 µM (active)
CCN(CC)c1ccc(/C=N/NC(=S)NCc2ccc(OC)cc2)cc1,AC50,Trypsin,7.25 µM (active)
same,AC50,CAAX prenyl protease 2 [22],24.8 µM (active)
same,AC50,CAAX prenyl protease 2 [23],13.6 µM (active)
